Tested on: HEp-2
Experiment: Tested for cloning suppression test against H.Ep.-2 cells
Format: functional
Settings: Homo sapiens, read-out: ED50 (the source's name)

Compound Nc1cc(N)c2cc(CCc3ccc(C(=O)NC(CCC(=O)O)C(=O)O)cc3)ccc2c1 (configuration not stated) has an EC50 of 0.9 nM.
In the case of CN(Cc1cnc2nc(N)nc(N)c2n1)c1ccc(C(=O)N[C@@H](CCC(=O)O)C(=O)O)cc1 [METHOTREXATE], the EC50 is reported as 2.4 nM.
